This is an account of results in US20250263404A1, “AMINOPYRIDINES AS ACTIVATORS OF PI3 KINASE” (UCL Business Ltd, priority 2021, published 2025).

One assay deals with T1, G106V mutant of p110α (Homo sapiens, UniProt P42336, G106V).
T1 construct: Full-length p110α was expressed in a complex with full-length p85α (for biochemistry and HDX-MS); 6xHis followed by TEV protease site (N); made in house; host or cells: Spodoptera frugiperda Sf9 (plasmid JB35)
The assay can be described thus: ADP-Glo kinase assay, oncogenic mutant G106V. The assay is classed as biochemical. Conditions: compared with pY. The method, then:
(§1) Co-stimulation of 1938 with pY led to an additive activatory effect for G106V, but not for the N345K and E545K mutants (FIG. 1f/FIG. 22f).
(§2) Kinase reactions were performed with ADP-Glo kinase assay kit (Promega Corporation). The enzyme, substrate and compounds were diluted in reaction buffer (20 mM HEPES, 50 mM NaCl, 50 mM KCl, 3 mM MgCl2, 1 mM EGTA, 1 mM TCEP, pH 7.4). Final concentrations of PI3Kα and PI3Kδ used were 25 nM and 50 nM for PI3Kβ. Liposomes (5% brain PI(4,5)P2, 20% brain phosphatidylserine, 45% brain phosphatidylethanolamine, 15% brain phosphatidylcholine, 10% cholesterol, 5% sphingomyelin (Avanti Polar Lipids)) were used at a final concentration of 1 mg/ml. The pY sequence is ESDGG(pY)[…](pY)[…].
(§3) For characterisation of the effects of 1938 on in vitro PI3K enzymology, all reactions were performed at room temperature with 384 white-polystyrene plates (Corning #3574). The final DMSO concentration in the assay was between 0.5%-1.8%. The reaction mixture contained 2 μl PI3K enzyme, 2 μl compound and/or pY and 2 μl of liposome substrate mixed with ATP. ATP was used at a final concentration of 200 μM, unless otherwise stated. The enzyme and compounds were pre-incubated for 10 min prior to addition of substrate. […] For enzyme kinetic calculations, data was expressed as velocity (pmol of ADP generated/sec). […]
(In ADP-Glo the light output rises with the ADP produced.)

A further assay concerns the target T2, E545K mutant of p110α (Homo sapiens, UniProt P42336, E545K).
T2 construct: Full-length p110α was expressed in a complex with full-length p85α (for biochemistry and HDX-MS); 6xHis followed by TEV protease site (N); made in house; host or cells: Spodoptera frugiperda Sf9 (plasmid OP663)
Put plainly: ADP-Glo kinase assay, oncogenic mutant E545K. The assay is classed as biochemical. Conditions: mutant insensitive to pY. The method, then:
as §1, §2, §3

The next assay deals with rat sciatic nerve. The assay can be described thus: Rat sciatic nerve crush injury model. The format is in vivo. The note with it: 21 days. On the procedure: Stimulated by these observations, we next tested 1938 in the sciatic nerve crush model in the rat, an in vivo model of peripheral nerve injury and regeneration. […] Immediately after the nerve crush (FIG. 5e, i-ii), 1938 was delivered via a single intraneural injection into the proximal crush site (FIG. 5e, iii) and via a minipump implanted adjacent to the nerve (FIG. 5e, iv), loaded with 1938 solution, for continuous delivery for the duration of the experiment. Analyses were conducted 3 weeks after injury.
Adult female Sprague Dawley rats (230-280 g, n=10, Charles River, UK) were anaesthetised by isoflurane inhalation in an induction chamber (5% isoflurane in O2, 0.8 l/min). Anaesthesia was maintained with 1.5-2.5% isoflurane inhalation, and the left sciatic nerve exposed at mid-thigh level.
The nerve was crushed by application of constant pressure using fully closed sterile type 4 tweezers (TAAB) for 15 sec. This was repeated two more times at the same point, with 45° rotation between each crush. The injury site was marked with a 10/0 epineurial non-absorbant suture (Ethicon). Following injury, frozen aliquots of 1938 solution and vehicle were defrosted. A single 2 μl injection of 1938 solution (5 μM in sterile H2O) or vehicle (sterile dH2O) was administered proximal to the crush site with a 10 μl Hamilton syringe. An osmotic minipump (Alzet 1004, Charles River, UK) was also implanted between the muscle layers, adjacent to the nerve oriented with the outlet nearest to the crush site, loaded with 1938 solution (100 μM in sterile H2O) or vehicle (sterile H2O). Animals were randomly assigned to groups (n=5 per group) and one experimenter was kept blind to condition for conducting functional and histological analyses. […]
At the end-point of the experiment (21 days), rats were anaesthetised and the sciatic nerve exposed as described above. […] The MI was manufactured using a previously documented protocol (Lancashire, H. T. et al. J Neural Eng 13, 034001 (2016). Electrode impedance of the MNI was 27.1±19.8 kΩ at 1k Hz. Compound muscle action potential (CMAP) was obtained by sciatic nerve stimulation with square wave pulses of 100 μsec with intensity from 1-10 mA. Stimulus was increased in 0.2 mA steps until muscle response amplitude no longer increased. CMAP amplitude was measured from peak to peak and recorded in triplicate for both the ipsilateral and contralateral side. The CMAP with the largest amplitude was selected for analysis.
A modified multipoint stimulation technique was used to calculate Motor Unit Number Estimation (MUNE) (Shefner, J. M. et al. Muscle & nerve 34, 603-607 (2006); Jacobsen, A. B. et al. J Vis Exp (2018); Arnold, W. D. et al. J Vis Exp (2015)). […] The CMAP was divided by the mean magnitude of SMUPs to quantify MUNE. […]

T1 sequence (P42336 whole entry G106V): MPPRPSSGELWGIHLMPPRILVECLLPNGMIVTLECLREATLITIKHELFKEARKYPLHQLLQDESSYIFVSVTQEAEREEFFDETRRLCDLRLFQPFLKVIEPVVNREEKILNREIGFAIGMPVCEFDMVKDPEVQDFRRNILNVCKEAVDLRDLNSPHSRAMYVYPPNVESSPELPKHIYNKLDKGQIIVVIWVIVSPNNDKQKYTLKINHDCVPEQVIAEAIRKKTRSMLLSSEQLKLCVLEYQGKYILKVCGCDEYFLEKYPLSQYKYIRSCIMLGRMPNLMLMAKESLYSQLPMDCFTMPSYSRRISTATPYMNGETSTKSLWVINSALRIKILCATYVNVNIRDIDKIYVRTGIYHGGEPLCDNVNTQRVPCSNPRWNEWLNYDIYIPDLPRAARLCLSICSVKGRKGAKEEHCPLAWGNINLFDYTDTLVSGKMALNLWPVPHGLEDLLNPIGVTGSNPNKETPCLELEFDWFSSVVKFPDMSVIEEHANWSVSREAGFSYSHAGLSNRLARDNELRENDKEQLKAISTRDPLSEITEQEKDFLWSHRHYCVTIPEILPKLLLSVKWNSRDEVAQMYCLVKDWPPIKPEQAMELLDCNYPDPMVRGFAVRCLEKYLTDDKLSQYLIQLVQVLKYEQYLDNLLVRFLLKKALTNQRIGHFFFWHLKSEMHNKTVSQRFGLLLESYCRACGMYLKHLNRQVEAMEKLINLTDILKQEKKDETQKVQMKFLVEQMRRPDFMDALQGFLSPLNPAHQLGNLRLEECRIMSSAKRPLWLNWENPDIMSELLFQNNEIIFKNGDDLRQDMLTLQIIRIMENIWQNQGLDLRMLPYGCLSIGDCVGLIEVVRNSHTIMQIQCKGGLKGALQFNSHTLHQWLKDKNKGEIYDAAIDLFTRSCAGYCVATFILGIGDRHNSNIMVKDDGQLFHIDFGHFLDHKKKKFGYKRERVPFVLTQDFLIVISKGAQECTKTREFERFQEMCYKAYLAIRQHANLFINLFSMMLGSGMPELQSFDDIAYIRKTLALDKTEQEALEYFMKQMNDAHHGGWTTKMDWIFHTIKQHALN
T1 sequence (P27986 whole entry partner): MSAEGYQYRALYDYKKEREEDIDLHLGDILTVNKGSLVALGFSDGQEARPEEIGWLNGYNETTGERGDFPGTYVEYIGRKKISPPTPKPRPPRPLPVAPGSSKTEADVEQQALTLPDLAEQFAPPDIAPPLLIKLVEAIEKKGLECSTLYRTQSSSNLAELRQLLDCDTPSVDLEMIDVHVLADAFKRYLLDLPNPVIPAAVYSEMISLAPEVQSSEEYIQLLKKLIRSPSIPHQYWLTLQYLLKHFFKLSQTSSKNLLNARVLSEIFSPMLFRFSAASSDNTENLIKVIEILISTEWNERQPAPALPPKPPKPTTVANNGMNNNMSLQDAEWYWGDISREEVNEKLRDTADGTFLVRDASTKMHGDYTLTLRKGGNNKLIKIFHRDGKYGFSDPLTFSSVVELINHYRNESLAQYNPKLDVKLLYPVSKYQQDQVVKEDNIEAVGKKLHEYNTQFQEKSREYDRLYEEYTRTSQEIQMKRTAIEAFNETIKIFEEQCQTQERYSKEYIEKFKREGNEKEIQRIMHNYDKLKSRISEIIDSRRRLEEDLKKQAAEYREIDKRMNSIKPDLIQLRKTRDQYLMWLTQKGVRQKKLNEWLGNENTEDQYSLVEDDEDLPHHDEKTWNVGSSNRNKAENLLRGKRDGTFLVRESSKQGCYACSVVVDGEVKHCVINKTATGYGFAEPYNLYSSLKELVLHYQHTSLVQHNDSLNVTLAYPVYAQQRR
T2 sequence (P42336 whole entry E545K): as the sequence (P42336 whole entry G106V) above, with V106G, E545K counted along it
T2 sequence (P27986 whole entry partner): as the sequence (P27986 whole entry partner) above

As to `CCN1CCN(c2ccc(Nc3cc(Nc4cccc5c4N(C(C)=O)CC5)ccn3)cc2)CC1` [Example 1938], the “activation of G106V mutant” value at G106V mutant of p110α is given as “levels comparable with stimulation with pY”. For the same compound, the “activation of E545K mutant” value on E545K mutant of p110α is recorded as “further activated”. The “neurofilament- and ChAT-positive axons, treatment versus control” value in the assay on rat sciatic nerve (3 mm and 6 mm distal to the crush site) was “equivalent numbers”. In the assay on rat sciatic nerve (distal common peroneal nerve), the “number of ChAT-positive motor axons” value is given as “an increase”. In the assay on rat sciatic nerve (tibialis anterior muscle), the “compound muscle action potential (CMAP) recovery” value is “greater” and the “motor unit number estimation (MUNE)” value is recorded as “increased”.
